Measurements from ChEMBL document CHEMBL2074224, “Characterization of multidrug resistance-associated protein 2 in the hepatocellular disposition of 4-hydroxynonenal” (Arch Biochem Biophys, 2003).

Target: ATP-binding cassette sub-family C member 2 (Rattus norvegicus, UniProt Q63120)
Assay: TP_TRANSPORTER: efflux in isolated rat hepatocytes (Wistar/TR-)
Assay type: functional, cell-based, Hepatocyte

ATP-binding cassette sub-family C member 2, sequence (Q63120 whole entry): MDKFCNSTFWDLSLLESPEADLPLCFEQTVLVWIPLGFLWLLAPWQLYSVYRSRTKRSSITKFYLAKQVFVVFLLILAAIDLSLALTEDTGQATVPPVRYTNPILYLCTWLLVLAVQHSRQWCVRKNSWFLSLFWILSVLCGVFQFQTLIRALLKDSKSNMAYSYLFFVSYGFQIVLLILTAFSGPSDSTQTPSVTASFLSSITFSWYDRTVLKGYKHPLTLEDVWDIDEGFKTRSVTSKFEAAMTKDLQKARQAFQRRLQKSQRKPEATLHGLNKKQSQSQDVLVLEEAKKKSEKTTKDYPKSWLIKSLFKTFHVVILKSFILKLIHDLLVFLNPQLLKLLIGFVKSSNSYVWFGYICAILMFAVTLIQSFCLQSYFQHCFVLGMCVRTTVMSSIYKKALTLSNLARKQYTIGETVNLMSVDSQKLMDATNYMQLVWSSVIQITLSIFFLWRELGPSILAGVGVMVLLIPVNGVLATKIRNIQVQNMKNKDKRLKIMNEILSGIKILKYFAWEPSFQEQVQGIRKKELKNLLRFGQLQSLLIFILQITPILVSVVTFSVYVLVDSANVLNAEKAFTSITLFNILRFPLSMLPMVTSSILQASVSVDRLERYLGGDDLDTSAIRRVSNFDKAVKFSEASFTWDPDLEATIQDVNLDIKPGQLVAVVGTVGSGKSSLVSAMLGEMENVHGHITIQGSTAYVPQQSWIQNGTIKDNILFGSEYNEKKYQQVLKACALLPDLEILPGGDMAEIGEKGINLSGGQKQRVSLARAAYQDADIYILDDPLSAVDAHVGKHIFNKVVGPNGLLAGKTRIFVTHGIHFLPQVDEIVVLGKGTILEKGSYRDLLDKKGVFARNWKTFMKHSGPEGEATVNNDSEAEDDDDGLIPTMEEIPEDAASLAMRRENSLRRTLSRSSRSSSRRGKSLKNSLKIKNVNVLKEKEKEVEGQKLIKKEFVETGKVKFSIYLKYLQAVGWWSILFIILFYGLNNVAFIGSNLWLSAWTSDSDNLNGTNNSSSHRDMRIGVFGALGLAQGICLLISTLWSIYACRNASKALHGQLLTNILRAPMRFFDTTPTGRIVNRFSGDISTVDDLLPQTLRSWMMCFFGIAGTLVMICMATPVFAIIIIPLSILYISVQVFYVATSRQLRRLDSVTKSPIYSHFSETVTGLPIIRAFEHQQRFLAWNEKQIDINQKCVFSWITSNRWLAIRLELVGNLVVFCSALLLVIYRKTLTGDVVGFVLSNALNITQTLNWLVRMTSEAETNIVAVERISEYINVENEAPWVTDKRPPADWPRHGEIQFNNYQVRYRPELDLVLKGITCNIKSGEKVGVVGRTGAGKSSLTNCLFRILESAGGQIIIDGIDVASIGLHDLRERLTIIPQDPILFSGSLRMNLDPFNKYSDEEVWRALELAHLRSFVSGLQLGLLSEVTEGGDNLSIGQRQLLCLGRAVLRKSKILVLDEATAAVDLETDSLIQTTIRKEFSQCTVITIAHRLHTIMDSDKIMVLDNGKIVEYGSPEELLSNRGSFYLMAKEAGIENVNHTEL

Question: How did the Activity turn out when `CCCCCC1OC(O)CC1SC[C@H](NC(=O)CC[C@H](N)C(=O)O)C(=O)NCC(=O)O` (stereo partly specified) was run?
Answer: substrate []
